From US20160221948A1, “NITROGEN-CONTAINING SATURATED HETEROCYCLIC COMPOUND” (SUMITOMO CHEMICAL COMPANY, LIMITED, priority 2013, published 2016)

Target: human SSTR4 (Homo sapiens, UniProt P31391)
Assay: Evaluation of agonist activities using human SSTR4-stably expressing cells (aequorin luminescence)
Format: cell-based
Parameters: expressed in transfected cells; host or cells: HEK293
Conditions: for SSTR4 agonist activity compared with other compounds: Tables 25 to 27; for EC50: luminescence signal, 1 μmol/L somatostatin taken as 100%
Experimental: Evaluation of Agonist Activities Using Cells that stably expressing human-derived SSTR4 (human SSTR4-stably expressing cells)
(1) Human SSTR4-Stably Expressing Cells
Human SSTR4-stably expressing cells were prepared, and cultured. Specifically, HEK293 cells, human kidney-derived cells, were used as host cells. By introducing pcDNA3.1 (cat. No. V79020, invitrogen, Carlsbad, Calif., USA) to which human SSTR gene was inserted into HEK293 cells, human SSTR4-stably expressing cell line was obtained. For selection, G418 (cat. No. 16513-84, Nacalai tesque, Japan) was used.
As the culture medium, D-MEM medium (cat. No. 11995, GIBCO, USA), containing 10% FBS and 200 μg/mL G418, was used, the culture was performed in a 225 cm^2 flask (cat. No. 11-006-010, Iwaki, Japan).
At about 80% confluence, the cells were harvested by treating with 20-fold diluted 0.25% Trypsin-EDTA (cat. No. 35554-64, Nacalai, tesque, Japan). The harvested cells were prepared at a reaction medium composed of Hanks Buffer (cat. No. 14065-056, invitrogen, Carlsbad, Calif., USA)/20 mM Hepes (cat. No. 15630-080, invitrogen, Carlsbad, Calif., USA), and 0.1% BSA (cat. No. A7906, Sigma Aldrich, USA) to 70000 cells/mL. Gα16 and apoaequorin were transiently introduced to the harvested cells, and the cells were seeded to a 384 well plate (cat. No. 781090, Greiner, Germany) at about 2000 cells/30 μL/well. On the next day of cell seeding, Coelenterazine H (cat. No. S2011, Promega, USA) was added to each well (10 μL/well) to make a final concentration of 0.5 μmol/L, and the plate was centrifuged. Then, the plate was left at room temperature for 4 hours in shaded state.
(2) Preparation of Test Compounds
DMSO solution of each test compound having 1000-fold larger concentration than the final concentration was prepared. The DMSO solutions were made to have 10-fold concentration than the final concentration with Hanks/20 mmol/L Hepes/0.1% BSA.
(3) Evaluation of Agonist Activity
For detection of luminescence signal due to SSTR4-stimulation, FDSS7000 (manufactured by Hamamatsu Photonics K.K.) was used. To plates having cells and the luminescence substrate, solutions of test compounds were added, then each luminescence signal was measured for 90 seconds, and each relative luminescence unit (RLU) was calculated. Based on luminescence signal from the wells to which a 1 μmol/L somatostatin solution was added taken as 100%, agonist activity of each test compound was evaluated.

Chain of human SSTR4 (P31391 whole entry): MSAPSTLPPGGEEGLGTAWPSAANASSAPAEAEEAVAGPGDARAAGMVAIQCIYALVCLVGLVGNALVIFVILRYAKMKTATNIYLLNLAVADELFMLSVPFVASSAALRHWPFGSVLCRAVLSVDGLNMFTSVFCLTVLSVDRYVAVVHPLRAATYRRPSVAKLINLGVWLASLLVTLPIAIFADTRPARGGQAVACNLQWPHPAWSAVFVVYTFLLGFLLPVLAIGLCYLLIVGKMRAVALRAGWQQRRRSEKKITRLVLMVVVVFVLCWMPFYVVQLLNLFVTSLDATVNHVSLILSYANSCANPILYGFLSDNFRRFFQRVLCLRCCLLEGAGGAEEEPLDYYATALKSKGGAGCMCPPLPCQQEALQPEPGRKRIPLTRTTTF

SSTR4 agonist activity compared with other compounds	EC50	SMILES
stronger SSTR4 agonist activity	3.7 nM	Cc1cccc(C(C)(C)NC(=O)C2CCCN(C)C2)c1Cl (centres unmarked) [Example 13]
stronger SSTR4 agonist activity	1.8 nM	CN1CCC[C@H](C(=O)NC(C)(C)c2cccc(Cl)c2Cl)C1 [Example 19, (3S)—N-[2-(2,3-dichlorophenyl)propane-2-yl]-1-methylpiperidine-3-carboxamide]
	10.9 nM	CN1CCC[C@H](C(=O)NC(C)(C)c2ccc(Cl)c(Cl)c2)C1 [Example 22]
	7.4 nM	Cc1cccc(C(C)(C)NC(=O)[C@H]2CCCN(C)C2)c1C [Example 23, (3S)—N-[2-(2,3-dimethylphenyl)propane-2-yl]-1-methylpiperidine-3-carboxamide]
	15.9 nM	Cc1cc(C)cc(C(C)(C)NC(=O)[C@H]2CCCN(C)C2)c1 [Example 25]
stronger SSTR4 agonist activity	2.2 nM	Cc1cccc(C(C)(C)NC(=O)[C@H]2CCCN(C)C2)c1Cl [Example 26, (3S)—N-[2-(2-chloro-3-methylphenyl)propane-2-yl]-1-methylpiperidine-3-carboxamide]
	12.2 nM	Cc1cc(Cl)ccc1C(C)(C)NC(=O)[C@H]1CCCN(C)C1 [Example 28]
	5.3 nM	Cc1cc(Cl)cc(C(C)(C)NC(=O)[C@H]2CCCN(C)C2)c1 [Example 29, (3S)—N-[2-(3-chloro-5-methylphenyl)propane-2-yl]-1-methylpiperidine-3-carboxamide]
stronger SSTR4 agonist activity	1.5 nM	COc1cc(Cl)ccc1C(C)(C)NC(=O)[C@H]1CCCN(C)C1 [Example 30, (3S)—N-[2-(4-chloro-2-methoxylphenyl)propane-2-yl]-1-methylpiperidine-3-carboxamide]
stronger SSTR4 agonist activity	1.4 nM	CCc1cc(Cl)ccc1C(C)(C)NC(=O)[C@H]1CCCN(C)C1 [Example 31, (3S)—N-[2-(4-chloro-2-ethylphenyl)propane-2-yl]-1-methylpiperidine-3-carboxamide]
	4 nM	CCc1ccc(C(C)(C)NC(=O)[C@H]2CCCN(C)C2)c(CC)c1 [Example 32, (3S)—N-[2-(2,4-diethylphenyl)propane-2-yl]-1-methylpiperidine-3-carboxamide]
	> 100 nM	CC(C)c1cc(Cl)ccc1C(C)(C)NC(=O)[C@H]1CCCN(C)C1 [Example 33]
	> 100 nM	CC(C)Cc1cc(Cl)ccc1C(C)(C)NC(=O)[C@H]1CCCN(C)C1 [Example 34]
	3.3 nM	Cc1ccc(C(C)(C)NC(=O)[C@H]2CCCN(C)C2)c(C)c1 [Example 35, (3S)—N-[2-(2,4-dimethylphenyl)propane-2-yl]-1-methylpiperidine-3-carboxamide]
	> 100 nM	CN1CCC[C@H](C(=O)NC(C)(C)c2ccc(Cl)cc2-c2ccccc2)C1 [Example 36]
stronger SSTR4 agonist activity	2.5 nM	Cc1ccc(C(C)(C)NC(=O)[C@H]2CCCN(C)C2)c(Cl)c1 [Example 37, (3S)—N-[2-(2-chloro-4-methylphenyl)propane-2-yl]-1-methylpiperidine-3-carboxamide]
	5 nM	Cc1ccc(Cl)c(C(C)(C)NC(=O)[C@H]2CCCN(C)C2)c1 [Example 38, (3S)—N-[2-(2-chloro-5-methylphenyl)propane-2-yl]-1-methylpiperidine-3-carboxamide]
	> 100 nM	CN1CCC[C@H](C(=O)NC(C)(C)c2ccccc2)C1 [Example 39]
	12.8 nM	CN1CCC[C@H](C(=O)NC(C)(C)c2cccc(Cl)c2)C1 [Example 41]
	45.6 nM	CN1CCC[C@H](C(=O)NC(C)(C)c2ccc(Cl)cc2)C1 [Example 42]
	13 nM	Cc1ccccc1C(C)(C)NC(=O)[C@H]1CCCN(C)C1 [Example 43, (3S)—N-[2-(2-methylphenyl)propane-2-yl]-1-methylpiperidine-3-carboxamide]
	28.2 nM	Cc1cccc(C(C)(C)NC(=O)[C@H]2CCCN(C)C2)c1 [Example 44]
	84.9 nM	Cc1ccc(C(C)(C)NC(=O)[C@H]2CCCN(C)C2)cc1 [Example 45]
	21.6 nM	CN1CCC[C@H](C(=O)NC(C)(C)c2cccc(Cl)c2F)C1 [Example 46]
	8 nM	Cc1ccc(C(C)(C)NC(=O)[C@H]2CCCN(C)C2)cc1Cl [Example 47, (3S)—N-[2-(3-chloro-4-methylphenyl)propane-2-yl]-1-methylpiperidine-3-carboxamide]
	10 nM	Cc1cc(C(C)(C)NC(=O)[C@H]2CCCN(C)C2)ccc1Cl [Example 48]

SSTR4 agonist activity compared with other compounds	EC50	SMILES
	12 nM	Cc1ccc(C)c(C(C)(C)NC(=O)[C@H]2CCCN(C)C2)c1 [Example 49]
	5 nM	COc1ccc(Cl)cc1C(C)(C)NC(=O)[C@H]1CCCN(C)C1 [Example 51, (3S)—N-[2-(5-chloro-2-methoxylphenyl)propane-2-yl]-1-methylpiperidine-3-carboxamide]
stronger SSTR4 agonist activity	1.2 nM	COc1cc(Cl)c(Cl)cc1C(C)(C)NC(=O)[C@H]1CCCN(C)C1 [Example 52]
	8.8 nM	COc1ccccc1C(C)(C)NC(=O)[C@H]1CCCN(C)C1 [Example 53]
	8.2 nM	COc1ccc(F)cc1C(C)(C)NC(=O)[C@H]1CCCN(C)C1 [Example 54, (3S)—N-[2-(5-fluoro-2-methoxylphenyl)propane-2-yl]-1-methylpiperidine-3-carboxamide]
	> 100 nM	CN1CCC[C@H](C(=O)NC(C)(C)c2ccccn2)C1 [Example 56]
	> 100 nM	CN1CCC[C@H](C(=O)NC(C)(C)c2cccnc2)C1 [Example 57]
	> 100 nM	CN1CCC[C@H](C(=O)NC(C)(C)c2ccncc2)C1 [Example 58]
	> 100 nM	CN1CCC[C@H](C(=O)NC(C)(C)c2ccsc2)C1 [Example 59]
	4.8 nM	CN1CCC[C@H](C(=O)NC(C)(C)c2ccccc2OC(F)(F)F)C1 [Example 60, (3S)—N-{2-[2-(trifluoromethoxy)phenyl]propane-2-yl}-1-methylpiperidine-3-carboxamide]
	> 100 nM	CN1CCC[C@H](C(=O)NC(C)(C)c2cccc(S(C)(=O)=O)c2)C1 [Example 62]
	> 100 nM	CN1CCC[C@H](C(=O)NC(C)(C)c2ccc(S(C)(=O)=O)cc2)C1 [Example 63]
	> 100 nM	CN1CCC[C@H](C(=O)NC(C)(C)c2ccccc2S(C)(=O)=O)C1 [Example 64]
	6.2 nM	CSc1ccccc1C(C)(C)NC(=O)[C@H]1CCCN(C)C1 [Example 65]
	20.5 nM	CN1CCC[C@H](C(=O)NC(C)(C)c2ccccc2OC(F)F)C1 [Example 66]
	1.5 nM	CN1CCC[C@H](C(=O)NC(C)(C)c2ccccc2Br)C1 [Example 67, (3S)—N-[2-(2-bromophenyl)propane-2-yl]-1-methylpiperidine-3-carboxamide]
	> 100 nM	CN1CCC[C@H](C(=O)NC(C)(C)c2ccc(Br)cc2)C1 [Example 68]
	> 100 nM	CN1CCC[C@H](C(=O)NC(C)(C)c2ccc(F)cc2)C1 [Example 69]
	> 100 nM	COc1cccc(C(C)(C)NC(=O)[C@H]2CCCN(C)C2)c1 [Example 70]
	3.3 nM	CN1CCC[C@H](C(=O)NC(C)(C)c2cccc(F)c2Cl)C1 [Example 71, (3S)—N-[2-(2-chloro-3-fluorophenyl)propane-2-yl]-1-methylpiperidine-3-carboxamide]
	2.8 nM	CN1CCC[C@H](C(=O)NC(C)(C)c2ccc(F)cc2Cl)C1 [Example 72, (3S)—N-[2-(2-chloro-4-fluorohenyl)propane-2-yl]-1-methylpiperidine-3-carboxamide]
	7.1 nM	CN1CCC[C@H](C(=O)NC(C)(C)c2cc(F)ccc2Cl)C1 [Example 73, (3S)—N-[2-(2-chloro-5-fluorohenyl)propane-2-yl]-1-methylpiperidine-3-carboxamide]
	20.9 nM	CN1CCC[C@H](C(=O)NC(C)(C)c2c(F)cccc2Cl)C1 [Example 74]
	73.3 nM	CN1CCC[C@H](C(=O)NC(C)(C)c2cccc(F)c2)C1 [Example 75]
	1.9 nM	CCc1ccccc1C(C)(C)NC(=O)[C@H]1CCCN(C)C1 [Example 76, (3S)—N-[2-(2-ethylphenyl)propane-2-yl]-1-methylpiperidine-3-carboxamide]
	3 nM	CN1CCC(C(=O)NC(C)(C)c2cccc3ccccc23)C1 (centres unmarked) [Example 77]
